The subject of one test is THP-1 cells. Description: Measurement of IL-1β production, hTRF protocol (second alternative procedure), THP-1 cells. The test is classed as cell-based, human. Particulars: read-out: NLRP3 hILIB EC50. In outline: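 Compounds, dilution series starting at a final 10 μM, were incubated 2 hours at 37° C with PMA-differentiated THP-1 cells (50 ng/ml overnight; 50,000 cells/well, 2% FBS RPMI). Released IL-1β quantified in supernatant by hTRF kit with 1:40 antibody dilution, 4° C overnight, 665/615 nm ratio.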

Another test has as its target T1, TLR7 (Homo sapiens, UniProt Q9NYK1).
T1 construct: human HEK-Blue cells co-expressing a TLR7 or TLR8 gene
T1 sequence (Q9NYK1 27-1049): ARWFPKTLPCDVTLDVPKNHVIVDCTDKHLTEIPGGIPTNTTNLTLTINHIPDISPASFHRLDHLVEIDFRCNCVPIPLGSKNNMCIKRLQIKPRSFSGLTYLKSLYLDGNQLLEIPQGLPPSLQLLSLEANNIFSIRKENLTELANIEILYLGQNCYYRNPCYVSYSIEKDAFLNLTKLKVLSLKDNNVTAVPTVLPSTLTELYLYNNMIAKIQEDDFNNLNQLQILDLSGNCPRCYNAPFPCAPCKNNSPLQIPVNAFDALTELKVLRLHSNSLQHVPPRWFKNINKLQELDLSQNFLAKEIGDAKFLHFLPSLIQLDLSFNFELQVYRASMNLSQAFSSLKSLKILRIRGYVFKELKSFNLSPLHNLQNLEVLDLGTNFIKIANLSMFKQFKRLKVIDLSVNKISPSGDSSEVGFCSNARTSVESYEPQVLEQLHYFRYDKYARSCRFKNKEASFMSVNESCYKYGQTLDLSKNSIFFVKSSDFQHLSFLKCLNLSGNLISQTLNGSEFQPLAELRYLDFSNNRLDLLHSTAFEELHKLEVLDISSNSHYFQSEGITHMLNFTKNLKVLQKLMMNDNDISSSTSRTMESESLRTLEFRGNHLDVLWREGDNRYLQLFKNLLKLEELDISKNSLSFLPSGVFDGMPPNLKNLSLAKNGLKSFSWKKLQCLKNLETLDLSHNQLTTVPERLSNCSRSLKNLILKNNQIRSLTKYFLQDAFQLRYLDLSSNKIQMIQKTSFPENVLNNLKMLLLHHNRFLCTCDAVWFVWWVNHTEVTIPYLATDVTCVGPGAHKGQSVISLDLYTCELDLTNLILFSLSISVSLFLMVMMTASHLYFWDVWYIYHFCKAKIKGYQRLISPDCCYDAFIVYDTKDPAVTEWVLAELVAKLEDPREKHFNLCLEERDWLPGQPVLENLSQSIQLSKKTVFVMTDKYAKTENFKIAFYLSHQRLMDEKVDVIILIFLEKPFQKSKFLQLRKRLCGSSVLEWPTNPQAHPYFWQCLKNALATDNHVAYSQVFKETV
Description: In vitro human TLR7 binding reporter assay (HEK-Blue, NF-kB/AP1-inducible SEAP). The test is classed as cell-based. Particulars: read-out: TLR7 Agonist EC50. In outline: (§1)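 EC50s come from NF-kB/AP1-driven SEAP secretion in HEK-Blue cells expressing TLR7 or TLR8, measured with Quanti-Blue after an 18 h compound incubation. Maximal response is defined by a 50 μM reference standard.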

The target in a further test is T2, TLR8 (Homo sapiens, UniProt Q9NR97).
T2 construct: human HEK-Blue cells co-expressing a TLR7 or TLR8 gene
T2 sequence (Q9NR97 27-1041): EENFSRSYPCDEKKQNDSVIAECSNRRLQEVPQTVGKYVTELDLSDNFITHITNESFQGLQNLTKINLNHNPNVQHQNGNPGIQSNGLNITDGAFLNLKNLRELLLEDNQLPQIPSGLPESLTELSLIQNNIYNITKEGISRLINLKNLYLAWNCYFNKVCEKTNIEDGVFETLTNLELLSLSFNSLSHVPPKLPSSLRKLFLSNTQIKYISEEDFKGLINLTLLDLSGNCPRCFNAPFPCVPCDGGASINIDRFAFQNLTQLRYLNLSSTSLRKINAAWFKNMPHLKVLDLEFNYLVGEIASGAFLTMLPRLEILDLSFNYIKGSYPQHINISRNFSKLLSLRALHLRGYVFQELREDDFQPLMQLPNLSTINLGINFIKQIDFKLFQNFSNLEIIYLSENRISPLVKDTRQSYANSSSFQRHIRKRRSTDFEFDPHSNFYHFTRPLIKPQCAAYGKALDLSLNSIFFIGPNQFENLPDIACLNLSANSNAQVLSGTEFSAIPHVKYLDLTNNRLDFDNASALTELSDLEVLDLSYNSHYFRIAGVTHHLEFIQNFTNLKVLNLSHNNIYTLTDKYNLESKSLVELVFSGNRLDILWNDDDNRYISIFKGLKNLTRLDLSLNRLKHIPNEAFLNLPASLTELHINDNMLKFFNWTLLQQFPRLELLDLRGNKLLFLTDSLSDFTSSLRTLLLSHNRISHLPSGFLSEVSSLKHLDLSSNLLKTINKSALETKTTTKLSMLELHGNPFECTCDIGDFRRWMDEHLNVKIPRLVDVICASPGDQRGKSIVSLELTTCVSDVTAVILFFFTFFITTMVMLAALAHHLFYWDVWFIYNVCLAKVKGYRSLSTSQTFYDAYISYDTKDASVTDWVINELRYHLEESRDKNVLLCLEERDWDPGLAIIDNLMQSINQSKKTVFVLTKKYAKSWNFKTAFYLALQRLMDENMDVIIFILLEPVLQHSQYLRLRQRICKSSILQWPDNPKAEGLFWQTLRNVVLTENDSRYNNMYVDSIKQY
Description: In vitro human TLR8 binding reporter assay (HEK-Blue, NF-kB/AP1-inducible SEAP). Particulars: read-out: TLR8 Agonist EC50. The test is classed as cell-based. In outline: as §1
For orientation: A reporter such as luciferase makes a cellular process visible.

The mark [1] stands for this setting: Homo sapiens, THP-1, IL-1β production, human.
Setting [2] is: Homo sapiens, THP-1, IL-1β production, human cells.

Molecules are shown by their SMILES. Where a name gives a salt, the structure may show the parent alone. Read-outs that look alike come from different tables or passages of the source. Where only a bound is given, the exact number is not on record here.

A word on the EC50: it is the concentration that produces a half-maximal response. In the case of `COCCOCCn1cc2c(n1)c(N)nc1cc(-n3cccn3)ccc12` [Example 15], the EC50 is 1.81 µM with THP-1 cells (setting [1]), 20 to 100 µM on TLR7 (activity range class) and above 100 µM on TLR8 (activity range class).
Regarding `CN(Cc1cc2c(N)nc3cc(-c4cc[nH]n4)ccc3c2[nH]1)[C@H]1CCOC1` [Example 491], the half-maximal effective concentration (EC50) in the test on THP-1 cells (setting [2]) is 1.17 µM; at TLR7 (activity range), above 100 µM; at TLR8 (activity range), above 100 µM.
As for `Nc1nc2cc(-c3cc[nH]n3)ccc2c2cn(CCOC(F)F)nc12` [Example 397], the EC50 in the test with THP-1 cells (setting [2]) was 0.34 µM; on TLR7 (activity range) it was 1 to 20 µM; at TLR8 (activity range), above 100 µM.
Take `CC(C(=O)NCCO)n1cc2c(N)nc3cc(-c4ccn[nH]4)ccc3c2n1` (stereo not drawn) [Example 568]: the EC50 in the test with THP-1 cells (setting [2]) was 2.1 µM; on TLR7 (activity range), above 100 µM; on TLR8 (activity range) it was above 100 µM.
On to `Nc1nc2cc(-c3cc[nH]n3)ccc2c2nn(CCNC(=O)c3csc(Cl)n3)cc12` [Example 151, N-{2-[4-amino-7-(1H-pyrazol-3-yl)-2H-pyrazolo[4,3-c]quinolin-2-yl]ethyl}-2-chloro-1,3-thiazole-4-carboxamide], for which the EC50 in the test with THP-1 cells (setting [1]) was 0.06 µM; at TLR7 (activity range class), above 100 µM; on TLR8 (activity range class) it was above 100 µM.
With `Nc1nc2cc(-c3cc[nH]n3)ccc2c2nn(CCC(=O)NCCO)cc12` [Example 511], the EC50 in the test with THP-1 cells (setting [2]) was 4.62 µM; at TLR7 (activity range) it was above 100 µM; on TLR8 (activity range), above 100 µM.
For `CCCCn1cc2c(n1)c(N)nc1cc(-c3ccn[nH]3)ccc12` [Example 186], the EC50 with THP-1 cells (setting [1]) was 0.21 µM; on TLR7 (activity range class), 1 to 20 µM; on TLR8 (activity range class), above 100 µM.
Turning to `CO[C@@H](CO)Cn1cc2c(N)nc3cc(-c4cc[nH]n4)ccc3c2n1` [Example 289, (2R)-3-[4-amino-7-(1H-pyrazol-3-yl)-2H-pyrazolo[4,3-c]quinolin-2-yl]-2-methoxypropan-1-ol, HCl], the EC50 with THP-1 cells (IL-1β production, human) is 0.28 µM; on TLR7 (activity range class) it was 1 to 20 µM; on TLR8 (activity range class), above 100 µM.
In the case of `CC(=O)NCc1cc2c(N)nc3cc(-n4cccn4)ccc3c2[nH]1` [Example 445], the EC50 was 0.66 µM in the test with THP-1 cells (setting [2]), above 100 µM at TLR7 (activity range) and above 100 µM at TLR8 (activity range).
On to `Cc1nc(C(=O)NCCc2cc3c(N)nc4cc(-c5cc[nH]n5)ccc4c3[nH]2)co1` [Example 493], for which the EC50 was 0.18 µM in the test on THP-1 cells (setting [2]), above 100 µM at TLR7 (activity range) and above 100 µM on TLR8 (activity range).
With `COCC(C)n1cc2c(N)nc3cc(-c4cc[nH]n4)ccc3c2n1` (stereo not drawn) [Example 336], the EC50 in the test on THP-1 cells (setting [1]) is 0.47 µM; at TLR7 (activity range class), above 100 µM; on TLR8 (activity range class), above 100 µM.
As for `Nc1nc2cc(-c3cc[nH]n3)ccc2c2[nH]c(CCNC(=O)c3cc(F)ccn3)cc12` [Example 416], the EC50 was 0.15 µM in the test with THP-1 cells (setting [2]), above 100 µM at TLR7 (activity range) and above 100 µM at TLR8 (activity range).
On to `CCS(=O)(=O)NCCc1cc2c(N)nc3cc(-c4cc[nH]n4)ccc3c2[nH]1` [Example 482], for which the figures for the concentration for a half-maximal effect (EC50) in the test on THP-1 cells (setting [2]), on TLR7 (activity range) and at TLR8 (activity range) were 2.21 µM, above 100 µM and above 100 µM, respectively.
As to `Nc1nc2cc(-c3cc[nH]n3)ccc2c2cn(CCNC(=O)c3ncccn3)nc12` [Example 70], the EC50 in the test on THP-1 cells (setting [1]) is 1.83 µM; on TLR7 (activity range class) it was above 100 µM; on TLR8 (activity range class), above 100 µM.
For the compound `Cc1nc(C(=O)NCCn2cc3c(n2)c(N)nc2cc(-c4cc[nH]n4)ccc23)ccc1C(F)(F)F` [Example 56], the EC50 in the test on THP-1 cells (setting [1]) was 0.31 µM; on TLR7 (activity range class) it was 20 to 100 µM; on TLR8 (activity range class) it was 1 to 20 µM.
In the same order, the values of `Nc1nc2cc(-c3cc[nH]n3)ccc2c2cn(CCCOc3ccccn3)nc12` [Example 3, 7-(1H-pyrazol-3-yl)-2-[3-(pyridin-2-yloxy)propyl]-2H-pyrazolo[3,4-c]quinolin-4-amine] are 0.56 µM, above 100 µM and above 100 µM.
With `CCOCCn1cc2c(N)nc3cc(-c4cc[nH]n4)ccc3c2n1` [Example 222], the EC50 with THP-1 cells (setting [1]) is 0.27 µM; at TLR7 (activity range class), above 100 µM; at TLR8 (activity range class) it was above 100 µM.
Regarding `CCn1c(CNC(C)=O)cc2c(N)nc3cc(-n4cccn4)ccc3c21` [Example 448], the concentration giving a half-maximal response (EC50) with THP-1 cells (setting [2]) was 1.78 µM; on TLR7 (activity range), above 100 µM; at TLR8 (activity range), above 100 µM.
Consider `CN(C)C(=O)C(C)(C)Cn1cc2c(N)nc3cc(-c4ccn[nH]4)ccc3c2n1` [Example 592], for which the EC50 in the test on THP-1 cells (setting [2]) is 0.68 µM; at TLR7 (activity range), above 100 µM; at TLR8 (activity range), above 100 µM.
Regarding `CC(C)(C)OC(=O)NCCn1cc2c(n1)c(N)nc1cc(-c3cccs3)ccc12` [Example 127, tert-butyl N-{2-[4-amino-7-(thiophen-2-yl)-2H-pyrazolo[3,4-c]quinolin-2-yl]ethyl}carbamate], the EC50 in the test with THP-1 cells (setting [1]) is 1.05 µM; on TLR7 (activity range class), above 100 µM; at TLR8 (activity range class) it was above 100 µM.
Turning to `Nc1nc2cc(-c3cc[nH]n3)ccc2c2cn(CCNC(=O)c3cccc(C(F)(F)F)n3)nc12` [Example 90], the EC50 with THP-1 cells (setting [1]) is 0.08 µM; at TLR7 (activity range class) it was 20 to 100 µM; on TLR8 (activity range class) it was 20 to 100 µM.
As for `Nc1nc2cc(-c3cc[nH]n3)ccc2c2cn(CC(=O)NCC(F)F)nc12` [Example 538], the values for the concentration giving a half-maximal response (EC50) with THP-1 cells (setting [2]), at TLR7 (activity range) and at TLR8 (activity range) were 0.6 µM, above 100 µM and above 100 µM, respectively.
As for `Nc1nc2cc(-c3cc[nH]n3)ccc2c2nn(CC(O)CF)cc12` (single isomer, unassigned) [Example 376], the EC50 in the test on THP-1 cells (setting [1]) was 0.4 µM; on TLR7 (activity range class), above 100 µM; on TLR8 (activity range class), above 100 µM.
In the case of `Nc1nc2cc(-c3cc[nH]n3)ccc2c2nn([C@H]3CC[C@@H](O)CC3)cc12` [Example 394], the EC50 was 0.46 µM in the test on THP-1 cells (setting [1]), above 100 µM at TLR7 (activity range class) and above 100 µM on TLR8 (activity range class).
`Nc1nc2cc(-c3cc[nH]n3)ccc2c2nn(CCO)cc12` [Example 209, 2-(4-amino-7-(1H-pyrazol-3-yl)-2H-pyrazolo[4,3-c]quinolin-2-yl)ethan-1-ol]: the EC50 in the test with THP-1 cells (setting [1]) was 0.19 µM; at TLR7 (activity range class) it was above 100 µM; on TLR8 (activity range class), above 100 µM.
On to `COCC(C)n1cc2c(N)nc3cc(-c4cc[nH]n4)ccc3c2n1` (single isomer, unassigned) [Example 338], for which the EC50 in the test with THP-1 cells (IL-1β production, human) is 0.39 µM; at TLR7 (activity range class) it was above 100 µM; at TLR8 (activity range class) it was above 100 µM.

Values taken from patent publication US12037344B2, “NLRP3 modulators” (INNATE TUMOR IMMUNITY, INC., priority 2018, dated 2024).
